pIC50: −log10 of the molar value. Where a name gives a salt, the structure may show the parent alone.

The test deals with p45MEK (GST-MEK) (Homo sapiens, UniProt Q02750). Put plainly: Cascade assay for inhibitors of the MAP kinase pathway (in vitro). Format: biochemical. How it is done: Incorporation of ^32P into myelin basic protein (MBP) was assayed in the presence of a glutathione S-transferase fusion protein containing p44MAP kinase (GST-MAPK) and a glutathione S-transferase fusion protein containing p45MEK (GST-MEK). The assay solution contained 20 mM HEPES, pH 7.4, 10 mM MgCl2, 1 mM MnCl2, 1 mM EGTA, 50 μM [γ-^32P]ATP, 10 μg GST-MEK, 0.5 μg GST-MAPK and 40 μg MBP in a final volume of 100 μL. […] Compounds were assessed at 10 μM for ability to inhibit incorporation of ^32P.
p45MEK (GST-MEK), sequence (Q02750 whole entry, the tested form may be a part): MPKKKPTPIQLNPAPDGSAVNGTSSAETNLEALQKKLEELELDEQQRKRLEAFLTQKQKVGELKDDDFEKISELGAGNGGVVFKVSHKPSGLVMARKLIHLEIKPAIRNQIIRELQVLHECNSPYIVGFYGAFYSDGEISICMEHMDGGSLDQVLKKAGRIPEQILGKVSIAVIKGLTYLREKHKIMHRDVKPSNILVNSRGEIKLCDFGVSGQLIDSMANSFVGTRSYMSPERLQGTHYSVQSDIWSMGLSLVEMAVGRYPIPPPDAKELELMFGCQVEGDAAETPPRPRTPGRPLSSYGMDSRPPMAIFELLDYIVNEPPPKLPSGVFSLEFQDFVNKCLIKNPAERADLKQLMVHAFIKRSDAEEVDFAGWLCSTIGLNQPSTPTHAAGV
To ascertain whether compounds were inhibiting GST-MEK or GST MAPK, two additional protocols were employed. In the first protocol, compounds were added to tubes containing GST-MEK, followed by addition of GST-MAPK, MBP and [γ-^32P]ATP. In the second protocol, compounds were added to tubes containing both GST-MEK and GST-MAPK, followed by MBP and [γ-^32P]ATP.
Regarding `Cc1cc(I)ccc1Nc1cc(F)ccc1C(=O)NOCc1cccs1` [Example 62, 4-Fluoro-2-(4-iodo-2-methyl-phenylamino)-N-(thiophen-2-ylmethoxy)-benzamide], the pIC50 is 7.07.
Under `Cc1cc(I)ccc1Nc1c(C(=O)NOCc2cccs2)ccc(F)c1F` [Example 63, 3,4-Difluoro-2-(4-iodo-2-methyl-phenylamino)-N-(thiophen-2-ylmethoxy)-benzamide] stands 7.72.
Under `Cc1cc(Br)ccc1Nc1c(C(=O)NOCc2cccs2)ccc(F)c1F` [Example 64, 2-(4-Bromo-2-methyl-phenylamino)-3,4-difluoro-N-(thiophen-2-ylmethoxy)-benzamide] stands 6.55; under `C=C(C)CONC(=O)c1ccc(F)cc1Nc1ccc(I)cc1C` [Example 65, 4-Fluoro-2-(4-iodo-2-methyl-phenylamino)-N-(2-methyl-allyloxy)-benzamide], 7.24; under `C=C(C)CONC(=O)c1ccc(F)c(F)c1Nc1ccc(I)cc1C` [Example 66, 3,4-Difluoro-2-(4-iodo-2-methyl-phenylamino)-N-(2-methyl-allyloxy)-benzamide], 7.80.
Under `CC=CCONC(=O)c1ccc(F)cc1Nc1ccc(I)cc1C` [Example 68, N-(But-2-enyloxy)-4-fluoro-2-(4-iodo-2-methyl-phenylamino)-benzamide] stands 6.92; under `CC=CCONC(=O)c1ccc(F)c(F)c1Nc1ccc(I)cc1C` [Example 69, N-(But-2-enyloxy)-3,4-difluoro-2-(4-iodo-2-methyl-phenylamino)-benzamide], 7.80.
The compound `CC=CCONC(=O)c1ccc(F)c(F)c1Nc1ccc(Br)cc1C` [Example 70, 2-(4-Bromo-2-methyl-phenylamino)-N-(but-2-enyloxy)-3,4-difluoro-benzamide] gave a pIC50 of 6.65.
Under `C#CCONC(=O)c1ccc(F)c(F)c1Nc1ccc(I)cc1C` [Example 71, 3,4-Difluoro-2-(4-iodo-2-methyl-phenylamino)-N-(prop-2-ynyloxy)-benzamide] stands 7.82; under `CC=CCONC(=O)c1ccc(F)c(F)c1Nc1ccc(I)cc1C` [Example 74, N-(But-2-enyloxy)-3,4-difluoro-2-(4-iodo-2-methyl-phenylamino)-benzamide], 7.46.
The result for `Cc1cc(I)ccc1Nc1cc(F)ccc1C(=O)N(O)C(C)C` [Example 78, 4-Fluoro-N-hydroxy-2-(4-iodo-2-methyl-phenylamino)-N-isopropyl-benzamide] reads 7.10.
Regarding `Cc1cc(I)ccc1Nc1c(C(=O)NOCC2CC2)cc(F)c(F)c1F` [Example 79, N-Cyclopropylmethoxy-3,4,5-trifluoro-2-(4-iodo-2-methyl-phenylamino)-benzamide], the pIC50 was 8.10.
`Cc1cc(I)ccc1Nc1cc(F)ccc1C(=O)N(C)O` [Example 80, 4-Fluoro-N-hydroxy-2-(4-iodo-2-methyl-phenylamino)-N-methyl-benzamide] had a pIC50 of 7.10.
Under `Cc1cc(I)ccc1Nc1cc(F)c([N+](=O)[O-])cc1C(=O)NO` [Example 81, 4-Fluoro-N-hydroxy-2-(4-iodo-2-methyl-phenylamino)-5-nitro-benzamide] stands 7.77; under `Cc1cc(I)ccc1Nc1c(C(=O)NOC2CCCCO2)ccc(F)c1F` (centres unmarked) [Example 83, 3,4-Difluoro-2-(4-iodo-2-methyl-phenylamino)-N-(tetrahydro-pyran-2-yloxy)-benzamide], 7.51; under `Cc1cc(I)ccc1Nc1c(C(=O)NOCCN2CCCCC2)cc(Br)c(F)c1F` [Example 85, 3,4-Difluoro-5-bromo-2-(4-iodo-2-methyl-phenylamino)-N-(2-piperidin-1-yl-ethoxy)-benzamide], 7.62.
Under `Cc1cc(I)ccc1Nc1c(C(=O)NOC2CCCCO2)cc(Br)c(F)c1F` (centres unmarked) [Example 86, 5-Bromo-3,4-difluoro-2-(4-iodo-2-methyl-phenylamino)-N-(tetrahydro-pyran-2-yloxy)-benzamide] stands 7.33.
Under `O=C(NO)c1ccc(F)cc1Nc1ccc(I)cc1Cl` [Example 87, 2-(2-Chloro-4-iodo-phenylamino)-4-fluoro-N-hydroxy-benzamide (HCl salt)] stands over 9.00; under `O=C(NOC1CCCCO1)c1ccc(F)cc1Nc1ccc(I)cc1Cl` (centres unmarked) [Example 88, 2-(2-Chloro-4-iodo-phenylamino)-4-fluoro-N-(tetrahydro-pyran-2-yloxy)-benzamide], 7.16; under `O=C(NOC1CCCCO1)c1ccc(F)c(F)c1Nc1ccc(I)cc1Cl` (centres unmarked) [Example 90, 3,4-Difluoro-2-(2-chloro-4-iodo-phenylamino)-N-(tetrahydro-pyran-2-yloxy)-benzamide], 7.26.
For `CN(C)CCONC(=O)c1cc(Br)c(F)c(F)c1Nc1ccc(I)cc1Cl` [Example 91, 5-Bromo-2-(2-chloro-4-iodo-phenylamino)-N-(2-dimethylamino-ethoxy)-3,4-difluoro-benzamide monohydrochloride salt], the pIC50 was 7.70.
The result for `Cc1cc(I)ccc1Nc1c(C(=O)NOCC(C)N(C)C)cc(Br)c(F)c1F` (centres unmarked) [Example 92, 5-Bromo-N-(2-dimethylamino-propoxy)-3,4-difluoro-2-(4-iodo-2-methyl-phenylamino)-benzamide] reads 7.48; that for `O=C(NOC1CCCCO1)c1cc(Br)c(F)c(F)c1Nc1ccc(I)cc1Cl` (centres unmarked) [Example 94, 5-Bromo-2-(2-chloro-4-iodo-phenylamino)-3,4-difluoro-N-(tetrahydro-pyran-2-yloxy)-benzamide], 7.42; that for `O=C(NOCC1CC1)c1cc(Br)c(F)c(F)c1Nc1ccc(I)cc1Cl` [Example 96, 5-Bromo-2-(2-chloro-4-iodo-phenylamino)-N-cyclopropylmethoxy-3,4-difluoro-benzamide], over 8.00.
Under `Cc1cc(I)ccc1Nc1c(C(=O)NOCCN2CCOCC2)cc(Br)c(F)c1F` [Example 97, 5-Bromo-3,4-difluoro-2-(4-iodo-2-methyl-phenylamino)-N-(2-morpholin-4-yl-ethoxy)-benzamide] stands 7.82.
The result for `CCN(CC)CCONC(=O)c1cc(Br)c(F)c(F)c1Nc1ccc(I)cc1C` [Example 98, 5-Bromo-N-(2-diethylamino-ethoxy)-3,4-difluoro-(4-iodo-2-methyl-phenylamino)-benzamide] reads 7.60.

The pIC50 is the IC50 on a negative log10 scale, so that one unit is a factor of ten. Read a high pIC50 as a small IC50.

These data come from patent publication US7169816B2, “4-bromo or 4-iodo phenylamino benzhydroxamic acid derivatives and their use as MEK inhibitors” (Warner-Lambert Company, priority 1997, dated 2007).
